Data taken from US11033607B2, “Peptides and methods for preventing ischemic tissue injury” (University Health Network, priority 2012, dated 2021).
“And” between values parts separate entries of the source, which are not always exact repeats. Equal values may be shown once.

Experiments:
isolated WT mice hearts = assay: Ex vivo I/R injury, LVDP in presence of soluble AC inhibitor KH7 or transmembrane AC inhibitor Ddox
Experimental: Male, 10-12 week old, C57BI/6 mice were anesthesized with i.p ketamine (100 mg/kg)/xylazine (10 mg/kg)/heparin (1000 IU/kg), and the heart excised quickly, cannulated through the aorta, and perfused retrogradely with Kreb's Heinslet buffer in a Langendorff apparatus as previously described (Ban et al. 2008). […] A small plastic balloon connected to a pressure transducer was inflated inside the LV to measure LV end systolic (LVESP) and end diastolic pressure (LVEDP) obtained from computer analysis (AcqKnowledge 3.7.1. Biopack System, Goleta, Calif.). LVEDP was maintained at 4-8 mm Hg throughout the experiment. After 20 min of equilibration to allow the balloon to adjust inside the LV, hearts were perfused with buffer for 20 min, followed by 20 min perfusion with peptide of interest (FIG. 1a). Global ischemia was then generated by clamping inflow to the heart for 30 min, after which reperfusion was reinstated for 40 min. In the untreated control group, hearts were perfused for a total of 40 min prior to ischemia. LV developed pressure (LVDP) was calculated by subtracting LVEDP from LVESP. Functional recovery of LV function was calculated as LVDP at the end of reperfusion as a percentage of LVDP prior to ischemia.

[1] = system: WT mice subjected to LAD ligation; assay: Myocardial infarction by LAD coronary artery ligation after 14-day peptide infusion, infarct size by TTC; format: in vivo, mouse; details: 4 days post-MI, mean±SE
From the text: After 2 weeks of continuous peptide infusion, animals were re-anesthesized with i.p ketamine/xylazine and underwent permanent ligation of the proximal left anterior descending (LAD) coronary artery to generate an experimental myocardial infarction (MI), as previously described (Ohta et al. 2004), with the surgeon blinded to treatment groups. At day 4 post-MI, animals were sacrificed and hearts excised for measurement of infarct size (FIG. 1B). This timepoint allows accurate measurement of infarct area prior to onset of cardiac rupture events (Noyan-Ashraf et al. 2005)
Freshly excised hearts were washed twice in cold PBS to remove excess blood, and cut into 2 mm sections perpendicular to the long axis. The sections were incubated at 37° C. in 2% 2,3,5-triphenyltetrazolium chloride (TTC) for 15 min, after which they were washed with PBS and fixed in 4% paraformaldehyde for 1 h before image acquisition using a digital scanner. Image J software (NIH, USA) was used to measure infarct area (TTC unstained white area) and total left ventricle (LV) area. Measurements were performed by two independent investigators blinded to treatment groups, and percent infarct size was calculated as the average of both measurements (infarct area/total LV area×100%).

[2] = system: primary ventricular cardiomyoctyes isolated from neonatal WT mice; assay: cAMP assay in neonatal mouse ventricular myocytes; format: cell-based; details: 30 nM, 10 min, IBMX 250 uM pretreatment, vs PBS or scrambled peptide
Experimental: (§1) Neonatal mouse ventricular myocytes (FIG. 9A) and atrial HL-1 myocyte cell lines (FIG. 9B) were pretreated with 250 uM IBMX for 30 min followed by treatment with GLP-1(28-36) and SCRAM(28-36) (30 nM each) or IPE and Forsk (10 uM each) or bicarbonate (25 mM) for 10 min. Cells were then lysed for measurement of cytoplasmic cAMP levels. Data represent mean±SE (n=3; triplicate wells for each replicate). After 24 h serum-deprivation, cells were pre-treated with the phosphodiesterase inhibitor IBMX (250 uM) for 30 min, after which the peptide of interest and/or vehicle PBS was added to the media to a final concentration of 30 nM for GLP-1 peptides and Exendin-4, and 10 uM for Isoproterenol and Forskolin. After 10 min drug treatment, cells were lysed and total intracellular cAMP release was measured using an enzymatic immunoassay kit (Cayman Chemicals, Mich.) as per manufacturer's protocol.

[3] = system: isolated perfused hearts of WT mice; assay: LDH release in coronary effluents of isolated perfused hearts undergoing I/R injury; parameters: species or system mouse; details: pretreatment 6 nmol/L, vs untreated control
Experimental: To further ascertain the protective actions of GLP-1(28-36)^amide, LDH release was measured in coronary effluents from the isolated perfused hearts as an indicator of cellular necrosis and death. […] Pretreatment with the GLP-1(28-36)^amide peptide therefore helps prevent cell death following an ischemic event and is useful for the treatment or prevention of ischemic tissue injury and ischemic heart disease.

[4] = system: mouse model of ischemic stroke; assay: Mouse model of ischemic stroke after 28 days cerebral ventricle infusion
Experimental: Peptides corresponding to the C-terminal domain of GLP-1 as described herein including GLP-1(28-36)^amide are tested in a mouse model of ischemic stroke. GLP-1(28-36)^amide is infused via Alzet® osmotic mini pumps brain infusion kits, specialized for targeted infusion into cerebral ventricles. After 28 days of GLP-1(28-36)^amide infusion, stroke is generated, after which brain infarct sizes are determined by TTC staining.
Protein lysates from brain tissue are extracted and the expression of survival kinases is probed by Western blots.

[5] = system: Akt, Erk1/2, CREB and eNOS; assay: Western blots of heart lysates from pre-treated mice; format: in vivo, mouse; details: organs collected on day 18, pre-treated hearts
From the text: Organs were collected on day 18 as shown in the experimental model set out in FIG. 1B and Western blots of heart lysates were processed.

[6] = system: primary human coronary artery smooth muscle cells (hCSMCs); assay: cAMP assay (enzymatic immunoassay) in hCSMCs; format: cell-based
Experimental: After 24 h serum-deprivation, cells were pre-treated with the phosphodiesterase inhibitor IBMX (250 uM) for 30 min, after which the peptide of interest and/or vehicle PBS was added to the media to a final concentration of 30 nM for GLP-1 peptides and Exendin-4, and 10 uM for Isoproterenol and Forskolin. After 10 min drug treatment, cells were lysed and total intracellular cAMP release was measured using an enzymatic immunoassay kit (Cayman Chemicals, Mich.) as per manufacturer's protocol.

HL-1 cells = assay: cAMP assay in HL-1 atrial myocyte cell line; format: cell-based, mouse; details: HL-1 atrial cardiomyocyte cell line, 30 nM, 10 min, IBMX 250 uM pretreatment
Experimental: as §1

[7] = with sAC inhibitor KH7 (2.4 uM)
[8] = with tmAC inhibitor Ddox (2,5 dideoxyadenosine, 12 uM)
[9] = 14-day pre-infusion 18.5 pmol/kg/min
[10] = 14-day pre-infusion 3.5 pmol/kg/min

| Substance | LVDP at the end of reperfusion (isolated WT mice hearts; [7]) [mmHg] | LVDP at the end of reperfusion (isolated WT mice hearts; [8]) [mmHg] | % LV infarct size [1, 9] | % LV infarct size [1, 10] | cAMP response [2] | LDH release in coronary effluent [3] | brain infarct size (TTC staining) ([4]; 28 days infusion into cerebral ventricles before stroke) | expression of survival kinases in brain tissue (Western blot) ([4]; mouse, in vivo) | activation of Akt, Erk1/2, CREB and eNOS (Western blot of heart lysates) [5] | intracellular cAMP, dose dependence [6] | cAMP release in presence of tmAC inhibitor Ddox ([6]; Ddox 25 uM) | cAMP release in presence of sAC inhibitor KH7 ([6]; KH7 25 uM) | increase in cAMP release ([6]; without AC inhibitor) [fold] | intracellular cAMP release (HL-1 cells) |
| --- | --- | --- | --- | --- | --- | --- | --- | --- | --- | --- | --- | --- | --- | --- |
| H-AGKFWRILV-NH2 [SCRAM(28-36)^amide] | 36.4±5.2 | 37.6±5.3 | 32.4±1.8% | – | – | – | – | – | – | – | – | – | – | – |
| H-EGTFTSDVSSYLEGQAAKEFIAWLVKGR-NH2 [GLP-1(9-36)^amide] | – | – | – | 26.1±1.4% | – | – | – | – | – | – | – | – | – | – |
| H-FIAWLVKGR-NH2 [GLP-1(28-36)^amide] | 25.2±1.7 | 67.6±5.8 | 24.9±2.6% and 24.9±2.4% | – | no cAMP response was detected | significantly lower concentration of LDH | smaller infarct sizes | upregulation of survival kinases | enhanced activation of Akt, Erk1/2, CREB and eNOS | dose-dependent increases in intracellular cAMP | did not prevent the increase in cAMP | abolished | 2 | no intracellular cAMP release |
| H-HAEGTFTSDVSSYLEGQAAKEFIAWLVKGR-NH2 [GLP-1(7-36)^amide] | 73.1±5.3 | 27.1±5.3 | – | 23.0±1.9% and 23.0% | – | – | – | – | – | – | – | – | – | – |
